Data taken from the supplement of paper PMC4862054.

What was measured:
Conditions in all cases: incubation time: 72 h
MDA-MB-468 [1] = assay: normalised response (% of control), CellTiter-Glo; higher = more viable cells (100 = DMSO, 0 = benzethonium chloride kill control)
Procedure, shortened: (§1)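 Normalised signals at single concentrations make up the values. They come from breast cancer cell lines seeded (20 µl suspension) into 384-well plates with compound at 5 concentrations in 10-fold steps over a compound-specific 10,000-fold range, incubated 72 h, and read for CellTox Green fluorescence then CellTiter-Glo luminescence. Each plate was normalised to 0.1 % DMSO (100) and a positive kill control (0).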

SK-BR-3 [2] = assay: as above
Procedure, shortened: as §1

CAL-85-1 [3] = assay: as above
Procedure, shortened: as §1

CAL-51 [4] = assay: as above
Procedure, shortened: as §1

DU-4475 [5] = assay: as above
Procedure, shortened: as §1

HCC1143 [6] = assay: as above
Procedure, shortened: as §1

HCC1599 [7] = assay: as above
Procedure, shortened: as §1

HCC1937 [8] = assay: as above
Procedure, shortened: as §1

BT-549 [9] = assay: as above
Procedure, shortened: as §1

BT-474 [10] = assay: as above
Procedure, shortened: as §1

MDA-MB-231 [11] = assay: as above
Procedure, shortened: as §1

Hs578T [12] = assay: as above
Procedure, shortened: as §1

CAL-148 [13] = assay: as above
Procedure, shortened: as §1

MDA-MB-453 [14] = assay: as above
Procedure, shortened: as §1

CAL-120 [15] = assay: as above
Procedure, shortened: as §1

MCF-10A = assay: as above
Procedure, shortened: as §1

MDA-MB-436 [16] = assay: as above
Procedure, shortened: as §1

MFM-223 [17] = assay: as above
Procedure, shortened: as §1

HDQ-P1 [18] = assay: as above
Procedure, shortened: as §1

MDA-MB-468 [19] = assay: normalised viability (% of control), CellTiter-Blue; higher = more viable cells (100 = DMSO, 0 = benzethonium chloride kill control)
Description: (§2)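 DSRT, CellTiter-Blue viability, 72 h incubation. Signal is normalised to DMSO and benzethonium chloride controls. Value is the normalised response at dose 1.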

SK-BR-3 [20] = assay: as above
Description: as §2

CAL-85-1 [21] = assay: as above
Description: as §2

CAL-51 [22] = assay: as above
Description: as §2

DU-4475 [23] = assay: as above
Description: as §2

HCC1143 [24] = assay: as above
Description: as §2

HCC1599 [25] = assay: as above
Description: as §2

HCC1937 [26] = assay: as above
Description: as §2

BT-549 [27] = assay: as above
Description: as §2

BT-474 [28] = assay: as above
Description: as §2

MDA-MB-231 [29] = assay: as above
Description: as §2

Hs578T [30] = assay: as above
Description: as §2

CAL-148 [31] = assay: as above
Description: as §2

MDA-MB-453 [32] = assay: as above
Description: as §2

CAL-120 [33] = assay: as above
Description: as §2

MDA-MB-436 [34] = assay: as above
Description: as §2

MFM-223 [35] = assay: as above
Description: as §2

HDQ-P1 [36] = assay: as above
Description: as §2

CAL-85-1 [37] = assay: normalised viability (% of control), CellTiter-Blue; higher = more viable cells (about 100 = DMSO control)
Description: (§3)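 DSRT, CellTiter-Blue viability, 72 h incubation. Signal is normalised to DMSO and benzethonium chloride controls. Value is the normalised response at dose 9.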

CAL-51 [38] = assay: as above
Description: as §3

DU-4475 [39] = assay: as above
Description: as §3

CAL-148 [40] = assay: as above
Description: as §3

MDA-MB-453 [41] = assay: as above
Description: as §3

HDQ-P1 [42] = assay: as above
Description: as §3

CN1CC[C@H](c2c(O)cc(O)c3c(=O)cc(-c4ccccc4Cl)oc23)[C@H](O)C1 [Alvocidib] (1 nM)
normalised response (MDA-MB-468 [1]): 106% | normalised response (SK-BR-3 [2]): 112% | normalised response (CAL-85-1 [3]): 110% | normalised response (CAL-51 [4]): 80.2% | normalised response (DU-4475 [5]): 104% | normalised response (HCC1143 [6]): 96.5% | normalised response (HCC1599 [7]): 94.2% | normalised response (HCC1937 [8]): 103% | normalised response (BT-549 [9]): 106% | normalised response (BT-474 [10]): 92.2% | normalised response (MDA-MB-231 [11]): 103% | normalised response (Hs578T [12]): 98.1% | normalised response (CAL-148 [13]): 104% | normalised response (MDA-MB-453 [14]): 115% | normalised response (CAL-120 [15]): 102% | normalised response (MCF-10A): 95.2% | normalised response (MDA-MB-436 [16]): 97.9% | normalised response (MFM-223 [17]): 98.2% | normalised response (HDQ-P1 [18]): 94.9% | normalised viability (MDA-MB-468 [19]): 113% | normalised viability (SK-BR-3 [20]): 97.4% | normalised viability (CAL-85-1 [21]): 83.5% | normalised viability (CAL-51 [22]): 102% | normalised viability (DU-4475 [23]): 101% | normalised viability (HCC1143 [24]): 78.5% | normalised viability (HCC1599 [25]): 99.6% | normalised viability (HCC1937 [26]): 96.4% | normalised viability (BT-549 [27]): 104% | normalised viability (BT-474 [28]): 92.3% | normalised viability (MDA-MB-231 [29]): 98.1% | normalised viability (Hs578T [30]): 73.7% | normalised viability (CAL-148 [31]): 104% | normalised viability (MDA-MB-453 [32]): 95.8% | normalised viability (CAL-120 [33]): 75% | normalised viability (MDA-MB-436 [34]): 94.3% | normalised viability (MFM-223 [35]): 88.3% | normalised viability (HDQ-P1 [36]): 79.7%

COc1cc(Nc2ncc3c(n2)-c2ccc(Cl)cc2C(c2c(F)cccc2OC)=NC3)ccc1C(=O)O [MLN8237] (1 nM)
normalised viability (MDA-MB-468 [19]): 105% | normalised viability (SK-BR-3 [20]): 103% | normalised viability (CAL-85-1 [21]): 95.7% | normalised viability (CAL-51 [22]): 99.7% | normalised viability (DU-4475 [23]): 101% | normalised viability (HCC1143 [24]): 96.3% | normalised viability (HCC1599 [25]): 114% | normalised viability (HCC1937 [26]): 101% | normalised viability (BT-549 [27]): 115% | normalised viability (BT-474 [28]): 109% | normalised viability (MDA-MB-231 [29]): 109% | normalised viability (Hs578T [30]): 99.4% | normalised viability (CAL-148 [31]): 102% | normalised viability (MDA-MB-453 [32]): 93.8% | normalised viability (CAL-120 [33]): 92.1% | normalised viability (MDA-MB-436 [34]): 119% | normalised viability (MFM-223 [35]): 88.5% | normalised viability (HDQ-P1 [36]): 88.2%

COc1cc(Nc2ncc3c(n2)-c2ccc(Cl)cc2C(c2c(F)cccc2OC)=NC3)ccc1C(=O)O [MLN8237] (10000 nM)
normalised viability (CAL-85-1 [37]): 56.3% | normalised viability (CAL-51 [38]): 18.8% | normalised viability (DU-4475 [39]): 21.9% | normalised viability (CAL-148 [40]): 26.2% | normalised viability (MDA-MB-453 [41]): 44.8% | normalised viability (HDQ-P1 [42]): 40.9%

CO[C@H]1C[C@@H]2CC[C@@H](C)[C@@](O)(O2)C(=O)C(=O)N2CCCC[C@H]2C(=O)O[C@H]([C@H](C)C[C@@H]2CC[C@@H](OC(=O)C(C)(CO)CO)[C@H](OC)C2)CC(=O)[C@H](C)/C=C(\C)[C@@H](O)[C@@H](OC)C(=O)[C@H](C)C[C@H](C)/C=C/C=C/C=C/1C [Temsirolimus] (0.1 nM)
normalised response (MDA-MB-468 [1]): 88.6% | normalised response (CAL-85-1 [3]): 100% | normalised response (CAL-51 [4]): 106% | normalised response (DU-4475 [5]): 104% | normalised response (HCC1143 [6]): 102% | normalised response (HCC1599 [7]): 89.3% | normalised response (HCC1937 [8]): 91.1% | normalised response (BT-549 [9]): 86.6% | normalised response (BT-474 [10]): 104% | normalised response (MDA-MB-231 [11]): 101% | normalised response (Hs578T [12]): 88.2% | normalised response (CAL-148 [13]): 99.7% | normalised response (MDA-MB-453 [14]): 104% | normalised response (CAL-120 [15]): 97.5% | normalised response (MCF-10A): 104% | normalised response (MDA-MB-436 [16]): 103% | normalised response (MFM-223 [17]): 103% | normalised response (HDQ-P1 [18]): 101% | normalised viability (MDA-MB-468 [19]): 93.5% | normalised viability (SK-BR-3 [20]): 92.6% | normalised viability (CAL-85-1 [21]): 79.7% | normalised viability (CAL-51 [22]): 98.3% | normalised viability (DU-4475 [23]): 99.3% | normalised viability (HCC1143 [24]): 94.1% | normalised viability (HCC1599 [25]): 99.8% | normalised viability (HCC1937 [26]): 55.3% | normalised viability (BT-549 [27]): 92.8% | normalised viability (BT-474 [28]): 95% | normalised viability (MDA-MB-231 [29]): 83.6% | normalised viability (Hs578T [30]): 86.6% | normalised viability (CAL-148 [31]): 96.1% | normalised viability (MDA-MB-453 [32]): 88.1% | normalised viability (CAL-120 [33]): 86.7% | normalised viability (MDA-MB-436 [34]): 92.4% | normalised viability (MFM-223 [35]): 77.8% | normalised viability (HDQ-P1 [36]): 105%

CO[C@H]1C[C@@H]2CC[C@@H](C)[C@@](O)(O2)C(=O)C(=O)N2CCCC[C@H]2C(=O)O[C@H]([C@H](C)C[C@@H]2CC[C@@H](OC(=O)C(C)(CO)CO)[C@H](OC)C2)CC(=O)[C@H](C)/C=C(\C)[C@@H](O)[C@@H](OC)C(=O)[C@H](C)C[C@H](C)/C=C/C=C/C=C/1C [Temsirolimus] (1000 nM)
normalised viability (CAL-85-1 [37]): 57.7% | normalised viability (CAL-51 [38]): 32.6% | normalised viability (DU-4475 [39]): 49.6% | normalised viability (CAL-148 [40]): 36.1% | normalised viability (MDA-MB-453 [41]): 22.8% | normalised viability (HDQ-P1 [42]): 80.6%
